The source of these data is patent US4130514A, “Synthesis of peptides” (Armour Pharmaceutical Company, priority 1978, dated 1978).

The nature of the test: adrenocorticotropic activity of the purified peptides (no method described). The following applies: peptide purified by carboxymethylcellulose ion-exchange chromatography and Sephadex gel filtration; result in words only.

For the substance “[D-ala^1, asn^25 ]-ACTH-(1-25) [[D-ala^1 ,gln^25]-ACTH-(1-25)]”, the adrenocorticotropic activity result is “found to have adrenocorticotropic activity”.
